Test results from PubChem BioAssay (NCI).
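Method: 48-hour compound exposure of cells in 96-well plates, five concentrations, linear interpolation of endpoints. TGI denotes the concentration required for complete inhibition of growth.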

How the values were obtained:
Assay in all cases: growth of human tumour cells (NCI), 48 h
HT29 colon = system: HT29 colon
786-0 renal = system: 786-0 renal
SF-268 CNS = system: SF-268 CNS
RPMI-8226 leukemia = system: RPMI-8226 leukemia
SR leukemia = system: SR leukemia
UO-31 renal = system: UO-31 renal
MCF7 breast = system: MCF7 breast
MDA-MB-231 breast = system: MDA-MB-231 breast
K-562 leukemia = system: K-562 leukemia
RXF 393 renal = system: RXF 393 renal

| SMILES | TGI (HT29 colon) | TGI (786-0 renal) | TGI (SF-268 CNS) | TGI (RPMI-8226 leukemia) | TGI (SR leukemia) | TGI (UO-31 renal) | TGI (MCF7 breast) | TGI (MDA-MB-231 breast) | TGI (K-562 leukemia) | TGI (RXF 393 renal) |
| --- | --- | --- | --- | --- | --- | --- | --- | --- | --- | --- |
| Oc1ccc(CCc2cc(O)cc(O)c2)cc1 | > 100 µM | > 100 µM | > 100 µM | > 100 µM | > 100 µM | > 100 µM | > 100 µM | > 100 µM | > 100 µM | > 100 µM |
| CC(=O)c1cc2c(s1)C(=O)c1ccccc1C2=O | 21.4 µM | > 71.3 µM | 16 µM | 26.9 µM | > 100 µM | 9.1 µM | 6.77 µM | 41.8 µM | > 100 µM | 28 µM |
| [N-]=[N+]=Nc1ccc(CNc2cc(=O)[nH]c(=O)[nH]2)cc1 | > 100 µM | > 100 µM | > 100 µM | > 100 µM | > 100 µM | > 100 µM | > 100 µM | > 100 µM | > 100 µM | > 100 µM |
| COc1ccc2nc3cc(Cl)ccc3c(NCCNCCCNC(=O)c3cc(-c4ccccc4)nc4ccccc34)c2c1 | > 100 µM | > 100 µM | > 100 µM | > 100 µM | > 100 µM | > 100 µM | > 100 µM | > 100 µM | > 100 µM | > 100 µM |
| Cc1c(-c2ccccc2)c(C#N)c2nnc(C(N)=O)c(N)n12 | > 100 µM | > 100 µM | > 100 µM | > 100 µM | > 100 µM | > 100 µM | > 100 µM | > 100 µM | > 100 µM | > 100 µM |
| Cn1nc(S(N)(=O)=O)s/c1=N/C(N)=S | > 100 µM | > 100 µM | > 100 µM | > 100 µM | > 100 µM | > 100 µM | > 100 µM | > 100 µM | > 100 µM | > 100 µM |
| CC(=O)N1CCN(C23OC4(N5CCN(C(C)=O)CC5)C5C6CC(C7C6C4C72)C53)CC1 (stereo not given) | > 100 µM | > 100 µM | > 100 µM | > 100 µM | > 100 µM | > 100 µM | > 100 µM | > 100 µM | > 100 µM | > 100 µM |
| COc1ccc(/C=C2\N=C(c3ccccc3)N(C3Nc4cc5c(cc4S3)NC(N3C(=O)/C(=C/c4ccc(OC)cc4)N=C3c3ccccc3)S5)C2=O)cc1 (stereo not given) | > 100 µM | > 100 µM | > 100 µM | 86.7 µM | > 100 µM | > 100 µM | > 100 µM | > 100 µM | > 100 µM | > 100 µM |
| C[C@]12CC[C@@H]3c4ccc(OC(=O)c5ccccc5)cc4CC[C@H]3[C@@H]1CC[C@@H]2Oc1c2ccccc2nc2ccccc12 | 12.6 µM | 14.3 µM | 20.8 µM | 18.1 µM | > 50 µM | > 50 µM | 46.3 µM | 35.2 µM | 17.8 µM | 15.8 µM |
| CCOc1cc(C2CC(c3ccc(NS(=O)(=O)c4cc([N+](=O)[O-])ccc4C)cc3)=NN2)ccc1O (stereo not given) | 72.2 µM | 67.8 µM | > 100 µM | > 100 µM | 53.6 µM | 84 µM | 49.6 µM | 89.2 µM | 99 µM | 40.4 µM |
| O=S1(=O)c2ccccc2NC(=S)CC1c1ccccc1 (stereo not given) | > 100 µM | > 100 µM | > 100 µM | > 100 µM | > 100 µM | > 100 µM | > 100 µM | > 100 µM | > 100 µM | > 100 µM |
| CC1(COS(=O)(=O)OCC2(C)COS(=O)(=O)OC2)COS(=O)(=O)OC1 | > 69.6 µM | > 100 µM | > 100 µM | > 50.1 µM | > 56.9 µM | > 100 µM | > 59.9 µM | > 100 µM | > 100 µM | > 100 µM |
| Cc1ccc(C(=O)/C(C#N)=C/Nc2c(C)n(C)n(-c3ccccc3)c2=O)cc1 | > 100 µM | > 100 µM | > 100 µM | > 100 µM | > 100 µM | > 100 µM | > 100 µM | > 100 µM | > 100 µM | > 100 µM |
| O=c1[nH]c(Nc2cccc(Cl)c2)nc2nc[nH]c12 | > 100 µM | > 100 µM | > 100 µM | > 100 µM | > 100 µM | > 100 µM | > 100 µM | > 100 µM | > 100 µM | > 100 µM |
